{"source": "ChEMBL document CHEMBL4616608", "about": "“Discovery of a lead series of potent benzodiazepine 5-HT2C receptor agonists with high selectivity in functional and binding assays” (Bioorg Med Chem Lett, 2020)", "key": {"[1]": {"experiment": "in vivo", "settings": "rat, plasma, po, 10 mg/kg"}, "[2]": {"experiment": "in vivo", "settings": "rat, brain, po, 10 mg/kg"}, "[3]": {"experiment": "in vivo", "settings": "rat, cerebrospinal fluid, po, 10 mg/kg"}}}
{"smiles": "CC1(C)CN2CCNCc3ccc(F)c1c32", "values": [{"measurement": "concentration at 1 h", "setting": "[1]", "result": 0.608, "unit": "µg/mL"}, {"measurement": "concentration at 1 h", "setting": "[2]", "result": 8860, "unit": "ng/g"}, {"measurement": "concentration at 1 h", "setting": "[3]", "result": 0.17, "unit": "µg/mL"}]}
